Laboratory results: US20230048888A1, “USE OF TRIAZOLOTRIAZINE DERIVATIVE IN TREATMENT OF DISEASES” (ZHEJIANG VIMGREEN PHARMACEUTICALS, LTD., priority 2019, published 2023)

Key:
[1] = Pharmacokinetics of Compound 40 and benzene sulfonate thereof in ICR mice, PO; conditions: mouse, in vivo, PO 100 mg/kg (based on free base), 40% Hp-β-CD
[2] = tested on: haloperidol-induced stiffness; experiment: Haloperidol-induced Parkinson's disease stiffness model in CD-1 mice (rearing and bar tests); assay type: in vivo; conditions: Experiment I
Text: Parkinson's disease (PD) is a common class of degenerative disease of the nervous system with the main pathological changes including the loss of substantia nigra dopaminergic neurons and the decrease of dopamine transmitter content, leading to tremor at rest, muscle stiffness, […], postural reflex disorders and other clinical symptoms. Haloperidol, a dopamine D2 receptor blocker, can block the dopamine D2 receptor in the striatum, leading to mouse dystonic postures, namely, stiffness and hypokinesia. This model is a recognized animal model of Parkinson's syndrome. The ameliorative effect of a test substance on the stiffness symptom of Parkinson's disease induced by haloperidol in CD-1 mice was evaluated. 57 SPF-grade male CD-1 mice (4 weeks old at the time of purchase and 8 weeks old at the time of experiment) with the weight of about 40 g were randomly divided into 5 groups, namely, a vehicle group (n=11), a group of 1 mg/kg benzene sulfonate of Compound 40 (n=11), a group of 3 mg/kg benzene sulfonate of Compound 40 (n=12), a group of 10 mg/kg benzene sulfonate of Compound 40 (n=12), and a group of 30 mg/kg benzene sulfonate of Compound 40 (n=11). 1 mg/kg haloperidol was injected subcutaneously at an injection volume of 10 ml/kg. 30 minutes after the injection, Compound 40 at each dose was intragastrically infused at a volume of 10 ml/kg. At the 1st hour and the 4th hour after the administration was completed, the rearing and bar tests were performed respectively, and the number of standings and on-bar time of the mice were counted to evaluate the ameliorative effect of Compound 40 on the stiffness symptom of haloperidol-induced Parkinson's disease in CD-1 mice. […] Firstly, the acetate of Compound 22 at each dose was intragastrically infused at a volume of 10 ml/kg. After 30 min, 1 mg/kg haloperidol was injected subcutaneously at an injection volume of 10 ml/kg. At the 1st hour and the 4th hour after the administration was completed, the rearing and bar tests were performed respectively, and the number of standings and on-bar time of the mice were counted to evaluate the ameliorative effect of the acetates of Compound 22 on the stiffness symptom of haloperidol-induced Parkinson's disease in CD-1 mice. […] Firstly, Compound 27 at each dose was intragastrically infused at a volume of 10 ml/kg. After 30 min, 1 mg/kg haloperidol was injected subcutaneously at an injection volume of 10 ml/kg. At the 1st hour and the 4th hour after the administration was completed, the rearing and bar tests were performed respectively, and the number of standings and on-bar time of the mice were counted to evaluate the ameliorative effect of Compound 27 on the stiffness symptom of haloperidol-induced Parkinson's disease in CD-1 mice. The mice were subcutaneously injected with haloperidol at abdomen at a dose of 1 mg/kg, with the concentration of a working solution of 0.1 mg/ml and an injection volume of 10 ml/kg. At the 1st hour and the 4th hour after drug intervention, the mice were put into a white transparent plastic bucket with a diameter of 20 cm and a height of 21 cm. The mice were allowed to acclimate in the bucket for 5 min before starting video recording. The spontaneous activity behaviors of the mice within 10 minutes were recorded, whereby the number of standings was counted. The more the standings, the more frequent the spontaneous exploration activities of the mice, and the lower the degree of stiffness. At the time points of 1st and 4th hours after the rearing test was completed, bar test was carried out. The mice were placed on a long wooden bar with a diameter of […] and a height of 6 cm. The mice were let to hold the wooden bar with forelimbs, only with the buttocks or hind limbs on the ground. The timing was stopped when the hind limbs left the bench top or the fore limbs left the wooden bar, and the on-bar time of the mice was recorded. Each mouse was tested 3 times, and the maximum on-bar time and the average on-bar time were counted. […]

[3] = tested on: haloperidol-induced stiffness; experiment: Haloperidol-induced Wistar rat stiffness model (bar test, rearing); assay type: in vivo, Wistar rats; conditions: for Number of standings: 1st hour after haloperidol
Protocol: Time of bar test: The stiffness of the rats was tested by the bar test. That is, a wooden bar with a diameter of 8 mm was fixed between 2 iron stands and was 10 cm from the bench top; and then, the rat's tail was grabbed to make its front paws rest on the wooden bar and its hind paws or buttocks on the ground. Generally, the rat needs to acclimate several times when it was tested for the first time. The time for the forelimbs to drop from the bar or the time for the hind limbs to leave the bench top were tested, each rat was tested 3 times. Number of standings: the number of standings of the rat was measured by the rearing test. That is, the rat was placed in a 27*52 cm cage and acclimate for 5 minutes, and the spontaneous activity behavior, i.e., the number of standings, of the rat within 10 minutes was recorded. When the rat's hind limbs stood with two forelimbs raised over the shoulders and touched the ground, one standing is counted, and the one forelimb lift was excluded. Generally, the rat would raise its forelimbs to touch the cage wall. If the rat raised its forelimbs over the shoulders several times without falling to the ground, only one standing was counted. The time of bar test was taken as a measurement index, including the average time and the maximum time. Long time indicates severe stiffness, short time indicates mild stiffness. After drug treatment, the shorter the time of bar test, the better the effect of the drug on relieving stiffness. The number of standings was counted by the rearing test. The more the number of standings, the more frequent the spontaneous exploration activity of the rat, and the lower the stiffness. The statistical analysis between groups was performed on the data by using Prism GraphPad 7.0 independent sample T test, and P<0.05 was considered as a significant difference.

[4] = 10 mg/kg intragastric, 1st hour
[5] = 10 mg/kg intragastric, 4th hour
[6] = 30 mg/kg intragastric, 1st hour
[7] = 30 mg/kg intragastric, 4th hour

**Q.** With `Cn1nnc(-c2ccc(CCNc3nc(N)n4nc(-c5ccco5)nc4n3)cc2)n1.O=S(=O)(O)c1ccccc1` [Benzene sulfonate of Compound 40, N^5-(4-(2-methyl-2H-tetrazol-5-yl)phenethyl)-2-(furan-2-yl)-[1,2,4]triazolo[1,5-a][1,3,5]triazine-5,7-diamine benzene sulfonate] as the compound, how does the AUC(0-t) [1] read?
**A.** 138 µg·h/mL

**Q.** What about the Cmax [1] of the same compound?
**A.** 36000 ng/mL

**Q.** What about the Tmax [1] of the same compound?
**A.** 0.5 h

**Q.** What about the AUC(0-inf) ([1]; read-out: AUCINF—pred) of the same compound?
**A.** 138 µg·h/mL

**Q.** And the half-life ([1]; read-out: T½ (converted))?
**A.** 2.29 h

**Q.** And the “Average on-bar time” value ([2]; 1 mg/kg intragastric, 1st hour)?
**A.** 237.67 ± 40.20 s

**Q.** And the “Maximum on-bar time” value ([2]; 1 mg/kg intragastric, 1st hour)?
**A.** 356.43 ± 55.79 s

**Q.** And the Number of standings ([2]; 1 mg/kg intragastric, 1st hour)?
**A.** 17.00 ± 1.99

**Q.** What about the “Average on-bar time” value ([2]; 1 mg/kg intragastric, 4th hour) of the same compound?
**A.** 241.14 ± 31.32 s

**Q.** And the “Maximum on-bar time” value ([2]; 1 mg/kg intragastric, 4th hour)?
**A.** 361.29 ± 53.92 s

**Q.** What about the Number of standings ([2]; 1 mg/kg intragastric, 4th hour) of the same compound?
**A.** 8.71 ± 2.68

**Q.** What about the “Average on-bar time” value ([2]; 3 mg/kg intragastric, 1st hour) of the same compound?
**A.** 120.05 ± 35.31 s

**Q.** What about the “Maximum on-bar time” value ([2]; 3 mg/kg intragastric, 1st hour) of the same compound?
**A.** 184.00 ± 50.55 s

**Q.** What about the Number of standings ([2]; 3 mg/kg intragastric, 1st hour) of the same compound?
**A.** 17.00 ± 2.99

**Q.** What about the “Average on-bar time” value ([2]; 3 mg/kg intragastric, 4th hour) of the same compound?
**A.** 171.76 ± 52.86 s

**Q.** What about the “Maximum on-bar time” value ([2]; 3 mg/kg intragastric, 4th hour) of the same compound?
**A.** 225.14 ± 51.96 s

**Q.** What about the Number of standings ([2]; 3 mg/kg intragastric, 4th hour) of the same compound?
**A.** 14.86 ± 1.89

**Q.** What about the “Average on-bar time” value [2, 4] of the same compound?
**A.** 36.10 ± 5.88 s

**Q.** What about the “Maximum on-bar time” value [2, 4] of the same compound?
**A.** 57.00 ± 11.21 s

**Q.** What about the Number of standings [2, 4] of the same compound?
**A.** 34.90 ± 4.75

**Q.** And the “Average on-bar time” value [2, 5]?
**A.** 66.07 ± 13.96 s

**Q.** And the “Maximum on-bar time” value [2, 5]?
**A.** 96.10 ± 23.06 s

**Q.** And the Number of standings [2, 5]?
**A.** 17.80 ± 4.32

**Q.** What about the “Average on-bar time” value [2, 6] of the same compound?
**A.** 26.50 ± 5.88 s

**Q.** What about the “Maximum on-bar time” value [2, 6] of the same compound?
**A.** 34.88 ± 6.68 s

**Q.** What about the Number of standings [2, 6] of the same compound?
**A.** 43.25 ± 3.89

**Q.** And the “Average on-bar time” value [2, 7]?
**A.** 20.00 ± 1.28 s

**Q.** And the “Maximum on-bar time” value [2, 7]?
**A.** 24.13 ± 1.67 s

**Q.** What about the Number of standings [2, 7] of the same compound?
**A.** 25.13 ± 3.25

**Q.** What about the “Average on-bar time” value ([3]; 3 mg/kg intragastric) of the same compound?
**A.** 212.67 ± 51.43 s

**Q.** And the “Maximum on-bar time” value ([3]; 3 mg/kg intragastric)?
**A.** 266.63 ± 50.73 s

**Q.** What about the Number of standings ([3]; 3 mg/kg intragastric) of the same compound?
**A.** 1.75 ± 0.60

**Q.** And the “Average on-bar time” value ([3]; 10 mg/kg intragastric)?
**A.** 41.67 ± 16.50 s

**Q.** And the “Maximum on-bar time” value ([3]; 10 mg/kg intragastric)?
**A.** 69.67 ± 28.71 s

**Q.** And the Number of standings ([3]; 10 mg/kg intragastric)?
**A.** 7.89 ± 0.98

**Q.** And the “Average on-bar time” value ([3]; 30 mg/kg intragastric)?
**A.** 12.29 ± 1.41 s

**Q.** What about the “Maximum on-bar time” value ([3]; 30 mg/kg intragastric) of the same compound?
**A.** 18.00 ± 2.21 s

**Q.** What about the Number of standings ([3]; 30 mg/kg intragastric) of the same compound?
**A.** 13.00 ± 0.96
